Data on 58 compounds can be found in paper PMC8041284, “Tunable Methacrylamides for Covalent Ligand Directed Release Chemistry” (Journal of the American Chemical Society, 2021).

As usually defined, the inhibition is the relative decrease from the control value, in per cent.

Each structure is given as a SMILES string. Like-named read-outs stand apart in the source and are kept apart here. Where a SMILES comes first, the peptide text is derived from it. Bridges are numbered along the chain shown (N, C = ends). [ ]: non-standard residue; d: D form. The star is where a group is joined. Ileψ(thiazoline)Cys = CC[C@H](C)[C@H](N)C1=N[C@H](C(=O)*)CS1; dOrn = NCCC[C@@H](N)C(=O)O

The target of the assay is BTK (Homo sapiens, UniProt Q06187). Put plainly: biochemical.
The mark [1] stands for this setting: read-out: BTK inhibition (%), 0.75 uM BTK, […] probe 3l, 15 min preincubation.

Chain of BTK (Q06187 402-655 limits assumed): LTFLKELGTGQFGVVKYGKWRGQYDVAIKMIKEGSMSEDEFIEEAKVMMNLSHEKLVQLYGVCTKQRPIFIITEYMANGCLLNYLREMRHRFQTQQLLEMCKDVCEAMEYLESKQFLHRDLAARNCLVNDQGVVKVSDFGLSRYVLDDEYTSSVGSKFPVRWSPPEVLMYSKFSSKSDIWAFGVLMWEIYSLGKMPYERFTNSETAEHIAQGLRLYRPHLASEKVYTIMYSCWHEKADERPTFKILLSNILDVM

Turning to `CC[C@]12C=CCN3CC[C@@]4(c5ccc(OC)cc5N(C)[C@H]4[C@@](O)(C(=O)OC)[C@@H]1OC(C)=O)[C@@H]32` [PCM-0215165], the inhibition at 10 µM under setting [1] was 6.2%.
Turning to `CCCCCCCCCCCCCCCC(=O)O[C@@H]1[C@@H](O)[C@@H](O)[C@@H]([C@H](NC(=O)[C@@H]2C[C@@H](CCC)CN2C)[C@H](C)Cl)O[C@@H]1SC` [PCM-0215167], the inhibition at 10 µM under setting [1] was 73.2%.
The same measure, in the same setting: the result for `COc1ccc([C@@H]2CC(=O)c3c(O)cc(O[C@@H]4O[C@H](CO[C@@H]5O[C@@H](C)[C@H](O)[C@@H](O)[C@H]5O)[C@@H](O)[C@H](O)[C@H]4O)cc3O2)cc1OC` [PCM-0215169] reads 5.4%.
As for `O=C(O)[C@H]1O[C@@H](Oc2cc3oc(-c4ccc(O)cc4)cc(=O)c3c(O)c2O)[C@H](O)[C@@H](O)[C@@H]1O` [PCM-0215170], the inhibition at 10 µM (read-out: BTK inhibition (%)) worked out at 0%.
As for `COC(=O)[C@@H](N)CCCN=C(N)N[N+](=O)[O-]` [PCM-0215172], under setting [1], the inhibition at 10 µM was found to be 19.6%.
The same measure, in the same setting: the result for `O=c1cc(N2CCOCC2)oc2c1ccc1ccccc12` [PCM-0215173] reads -17.9%; that for `NCC[C@H](O)C(=O)N[C@@H]1C[C@H](N)[C@@H](O[C@H]2O[C@H](CN)[C@@H](O)[C@H](O)[C@H]2O)[C@H](O)[C@H]1O[C@H]1O[C@H](CO)[C@@H](O)[C@H](N)[C@H]1O` [PCM-0215174], 9.4%; that for `NC(N)=NCCC[C@H](N)C(=O)NCC(=O)N[C@@H](CC(=O)O)C(=O)O` [PCM-0215176], 9.4%.
Still for that read-out and setting: the result for `COc1cc(N2CCC(N(C)C)CC2)ccc1Nc1ncc(Cl)c(Nc2ccccc2P(C)(C)=O)n1` [PCM-0215177] reads 64.8%.
For `C[N+](C)(C)NCCC(=O)[O-]` [PCM-0215179], the inhibition at 10 µM under setting [1] was -8.5%.
Same read-out and setting: the result for `Cc1cc(/C(O)=C2\C(=O)C(=O)N(CCCN3CCOCC3)C2c2ccncc2)ccc1OCc1ccccc1` (stereo not shown) [PCM-0215180] reads 0%; that for `Cc1c(N)nc([C@H](CC(N)=O)NC[C@H](N)C(N)=O)nc1C(=O)N[C@H](C(=O)N[C@H](C)[C@@H](O)[C@H](C)C(=O)N[C@H](C(=O)NCCc1nc(-c2nc(C(=O)NCCC[S+](C)C)cs2)cs1)[C@@H](C)O)[C@@H](O[C@@H]1O[C@@H](CO)[C@@H](O)[C@H](O)[C@@H]1O[C@H]1O[C@H](CO)[C@@H](O)[C@H](OC(N)=O)[C@@H]1O)c1cnc[nH]1` [PCM-0215181], 7.7%.
Still for that read-out and setting: the result for `CCCCCCCCCCCCCCCCCCOP(=O)([O-])OC1CC[N+](C)(C)CC1` [PCM-0215183] reads -46.8%; that for `CO/N=C(\C(=O)N[C@@H]1C(=O)N2C(C(=O)O)=C(Cn3ccc(=N)n3CCO)CS[C@H]12)c1csc(N)n1` [PCM-0215184], 9.4%.
The same measure, in the same setting: as for `CCCCC[C@H](O)/C=C/[C@H]1[C@H](O)CC(=O)[C@@H]1C/C=C\CCCC(=O)O` [PCM-0215185], the figure is -11.7%; as for `NCCCC(O)(P(=O)(O)O)P(=O)(O)O` [PCM-0215186], 0.9%; as for `Cc1onc(-c2ccccc2)c1C(=O)N[C@@H]1C(=O)N2[C@@H]1SC(C)(C)[C@@H]2C(=O)O` [PCM-0215187], 21.3%.
Regarding `COC(=O)[C@@H]1CC2=CC(=O)CC[C@]2(C)[C@@]23O[C@@H]2C[C@@]2(C)[C@@H](CC[C@@]24CCC(=O)O4)[C@H]13` [PCM-0215188], the inhibition at 10 µM under setting [1] was -18.7%.
On the same count and under the same terms, the result for `C=C1c2cccc(O)c2C(O)=C2C(=O)[C@]3(O)C(O)=C(C(N)=O)C(=O)[C@@H](N(C)C)[C@@H]3[C@@H](O)[C@H]12` [PCM-0215189] reads 17%; that for `CC(=O)OCC1=C(C(=O)O)N2C(=O)[C@@H](N)[C@H]2SC1` [PCM-0215190], -8.5%; that for `N[C@@]1(C(=O)O)CS(=O)(=O)[C@H]2[C@H](C(=O)O)[C@H]21` [PCM-0215191], 9.4%.
Still for that read-out and setting: as for `CN[C@@H]1[C@H](O[C@H]2[C@H](O[C@H]3[C@H](O)[C@@H](O)[C@H](N=C(N)N)[C@@H](O)[C@@H]3N=C(N)N)O[C@@H](C)[C@]2(O)C=O)O[C@@H](CO)[C@H](O)[C@H]1O` [PCM-0215192], the figure is -10.2%.
Turning to `NC(N)=NCCC[C@H](N)C(=O)O` [PCM-0215193], the inhibition at 10 µM under setting [1] stood at 2.6%.
For the compound `CNC(=O)[C@H](Cc1ccccc1)NC(=O)[C@H](CC(C)C)[C@H](CSc1cccs1)C(=O)NO` [PCM-0215194], under setting [1], the inhibition at 10 µM came to 11.6%.
Still for that read-out and setting: the result for `CC(C)N(CCCNC(=O)Nc1ccc(C(C)(C)C)cc1)C[C@H]1O[C@@H](n2ccc3c(N)ncnc32)[C@H](O)[C@@H]1O` [PCM-0215195] reads -18.5%.
The same measure, in the same setting: the result for `CC[C@@H](C)Nc1cc(C(=O)NC2C[C@H]3CC[C@@H](C2)N3c2ccc(C(=O)C3CC3)cn2)c(C)cc1C(N)=O` (stereo partly shown) [PCM-0215196] reads -0.8%; that for `CN1CC[C@@H](c2c(O)cc(O)c3c(=O)cc(-c4ccccc4Cl)oc23)[C@@H]1CO` [PCM-0215197], -5.5%; that for `O=C(NC(NC(=S)Nc1ccc(F)c([N+](=O)[O-])c1)C(Cl)(Cl)Cl)C(c1ccccc1)c1ccccc1` (stereo not shown) [PCM-0215199], 106%.
Take `CC[C@H](C)[C@H](N)C1=N[C@H](C(=O)N[C@@H](CC(C)C)C(=O)N[C@H](CCC(=O)O)C(=O)N[C@H](C(=O)N[C@H]2CCCCNC(=O)[C@H](CC(N)=O)NC(=O)[C@@H](CC(=O)O)NC(=O)[C@H](Cc3cnc[nH]3)NC(=O)[C@@H](Cc3ccccc3)NC(=O)[C@H]([C@@H](C)CC)NC(=O)[C@@H](CCCN)NC2=O)[C@@H](C)CC)CS1` [PCM-0215200] ({Ileψ(thiazoline)Cys}-L[dE]IK[dOrn]I[dF]H[dD]N; lactam 4-C): the inhibition at 10 µM under setting [1] was -27.2%.
On the same count and under the same terms, as for `O=C1CC(=O)c2c(Cl)c(Cl)c(Cl)c(Cl)c21` [PCM-0215201], the figure is 79.5%.
With `Cc1cc(C(=O)CN2CCCC2)c(C)n1-c1ccc(F)cc1` [PCM-0215202], the inhibition at 10 µM (read-out: BTK inhibition (%)) stood at 5.4%.
Consider `CO/N=C(\C(=O)N[C@@H]1C(=O)N2C(C(=O)O)=C(CSc3nc(=O)c(O)nn3C)CS[C@H]12)c1csc(N)n1` [PCM-0215203], for which the inhibition at 10 µM under setting [1] was -16.2%.
Still for that read-out and setting: as for `CN(C)[C@@H]1C(=O)C(C(N)=O)=C(O)[C@@]2(O)C(=O)C3=C(O)c4c(O)ccc(Cl)c4[C@@](C)(O)[C@H]3C[C@@H]12` [PCM-0215204], the figure is 10.2%; as for `CCOC(CN1CCN(CC(C)C(=O)c2ccccc2)CC1)c1ccccc1` (stereo not shown) [PCM-0215205], -6.8%; as for `CCOc1ccccc1N=Nc1c(C)[nH]n(-c2nc(-c3ccccc3)cs2)c1=O` [PCM-0215207], -8.5%.
The same measure, in the same setting: the result for `C=CC(=O)Nc1cccc(Nc2nc(Nc3ccc(NC4CN(CCF)C4)cc3OC)ncc2C(F)(F)F)c1` [PCM-0215208] reads 91%; that for `Cc1ccc(C(=O)Nc2ccc(CN3CCN(C)CC3)c(C(F)(F)F)c2)cc1C#Cc1cnc2[nH]ncc2c1` [PCM-0215209], 114%.
Still for that read-out and setting: as for `Cc1ccccc1C(C(=O)NC1CCCCC1)N(C(=O)Cn1ccnc1C)c1cccc(F)c1` (stereo not shown) [PCM-0215210], the figure is -6.9%; as for `COc1cc(N2CCC(N)CC2)ccc1Nc1ncc(Cl)c(-c2c[nH]c3ccccc23)n1` [PCM-0215211], 95.9%.
As to `CC(=O)c1cc([N+](=O)[O-])c(Sc2ccc(F)cc2F)s1` [PCM-0215212], the inhibition at 10 µM under setting [1] was found to be 5.4%.
Same read-out and setting: as for `NC[C@@H]1O[C@H](O[C@H]2[C@@H](O)[C@H](O[C@@H]3[C@@H](O)[C@H](N)C[C@H](N)[C@H]3O[C@H]3O[C@H](CO)[C@@H](O)[C@H](O)[C@H]3N)O[C@@H]2CO)[C@H](N)[C@@H](O)[C@@H]1O` [PCM-0215214], the figure is 5.1%; as for `c1ccc(CNc2nc(NCc3ccccc3)c3ccccc3n2)cc1` [PCM-0215216], 10.8%.
As to `CN[C@@H](C)C(=O)N[C@H](C(=O)N1CCC[C@H]1C(=O)Nc1snnc1-c1ccccc1)C1CCCCC1` [PCM-0215217], the inhibition at 10 µM under setting [1] was -17%.
Same read-out and setting: as for `CC(C)C[C@H](NC(=O)[C@H]1O[C@@H]1C(=O)O)C(=O)NCCCCN=C(N)N` [PCM-0215218], the figure is 15.4%; as for `NC[C@H]1O[C@H](O[C@H]2[C@H](O[C@@H]3O[C@H](CO)[C@@H](O)[C@H]3O)[C@@H](O)[C@H](N)C[C@@H]2N)[C@H](N)[C@@H](O)[C@@H]1O` [PCM-0215219], 25.5%.
The same measure, in the same setting: as for `CN[C@@H]1[C@@H](O[C@H]2O[C@H](CO)[C@@H](N)[C@H](O)[C@H]2O)O[C@H]2C[C@@H](N)[C@@H](O[C@H]3[C@H](O)[C@@H](O)[C@H](N)C[C@@H]3N)O[C@@H]2[C@@H]1O` [PCM-0215222], the figure is 8.5%; as for `Cc1cc(C)c(CNC(=O)c2cc(-c3ccc(CN4CCOCC4)cc3)cc3c2cnn3C2CCCC2)c(=O)[nH]1` [PCM-0215223], -6.8%; as for `CC(=O)N1CCN(CCOc2ccc(C3CCN(C4=Nn5c(nnc5C(F)(F)F)CC4)CC3)cc2)CC1` [PCM-0215224], -17%.
On the same count and under the same terms, as for `Cc1cc(Cn2cnc3c2C[C@@H](C(=O)O)N(C(=O)C(c2ccccc2)c2ccccc2)C3)ccc1N(C)C` [PCM-0215225], the figure is 6.2%; as for `Cc1cc(SCc2sc(-c3ccc(C(F)(F)F)cc3)nc2C)ccc1OCC(=O)O` [PCM-0215226], 23.9%; as for `c1ccc2c(Oc3nc(Nc4ccc(N5CCOCC5)cc4)c4ncn(C5CCCCC5)c4n3)cccc2c1` [PCM-0215227], 17.9%.
In the case of `Cn1cnc2c(F)c(Nc3ccc(Br)cc3F)c(C(=O)NOCCO)cc21` [PCM-0215228], the inhibition at 10 µM under setting [1] was found to be 22.8%.
Still for that read-out and setting: the result for `O=C(NNc1nc2cc(F)ccc2n2cccc12)c1cnccn1` [PCM-0215229] reads 30.1%.
On the same count and under the same terms, as for `CCNC(=O)C[C@@H]1N=C(c2ccc(Cl)cc2)c2cc(OC)ccc2-n2c(C)nnc21` [PCM-0215230], the figure is -20.8%; as for `COc1ccc(/C=C\c2cc(OC)c(OC)c(OC)c2)cc1OP(=O)(O)O` [PCM-0215231], -27.2%.
The same measure, in the same setting: the result for `CCN=C1N[C@@H]2[C@@H](O)[C@H](O)[C@@H](CO)O[C@@H]2S1` [PCM-0215232] reads 3.1%; that for `O=C(Nc1cc2cc[nH]c2cn1)c1ccccc1` [PCM-0215233], 0.8%; that for `O=C(NN=Cc1ccc(O)c(O)c1)c1cc2ccccc2cc1O` [PCM-0215235], 32.4%.
